Measured values as given in article PMC9964746, “Mechanism of Action and Structure–Activity Relationships of Tetracyclic Small Molecules Acting as Universal Positive Allosteric Modulators of the Cholecystokinin Receptor” (Membranes, 2023).
Values joined by “and” are separate entries in the source; they are usually repeats but may differ in a detail not shown here. Equal values may be shown once.

Columns and labels:
Type in all cases: cell-based
[1] = biological target: T1, vasopressin-2 receptor (AVP2R) (Homo sapiens, UniProt P30518); experiment: AVP2R cAMP HTRF accumulation assay; conditions: CHO-K1 AVP2R cells; for AVP2R PAM (cAMP) Score (activity score = normalized Emax × pEC50): PAM format; for EC50 / Emax: PAM format with vasopressin, original hits: agonist and PAM data combined, average ± SD
T1 construct: expressed in transfected cells; host or cells: CHO-K1 (PAM format); HEK-293 (agonist format)
Protocol: Possible off-target biological effects. […] Here, we tested them at the vasopressin-2 receptor (AVP2R), representing a class A GPCR structurally related to CCK1R, which is coupled to Gs. The activity at AVP2R was tested using AVP2R-overexpressing CHO-K1 (PAM format) or HEK-293 (agonist format) cells, stimulating the cells with vasopressin. Original hits were tested in both agonist and PAM formats. Since all recognized compound responses were present in both formats, we continued to screen analogs in only the PAM format (also able to capture agonist effects) in CHO-K1 AVP2R cells for potential enhanced sensitivity. The dose–response data sets for original hits were combined, as the PAM and agonist effects were indistinguishable. In brief, arginine vasopressin (AVP) orthosteric stimulator dilutions and ligand and compound dose–response titrations in DMSO were transferred onto a 1536-well plate (Corning #3725) using an Echo liquid handler (Labcyte). Thawed cryopreserved cell stocks were diluted in stimulation buffer consisting of HBSS (Hank’s Balanced Salt Solution with Ca^2+ and Mg^2+, Gibco #24020117), 5 mM HEPES (hydroxyethyl piperazineethanesulfonic acid), 0.5 mM IBMX (3-isobutyl-1-methylxanthine, Sigma-Aldrich), and 0.075% BSA (7.5% DTPA-purified bovine serum albumin, PerkinElmer). The resulting cell suspension was added to the microplate and incubated with test compounds at room temperature for 30 min. Then, the detection reagents from the Cisbio cAMP Gs Dynamic HTRF detection kit were added. The plate was kept at room temperature for 30 min and read on a PHERAstar FSX microplate reader. Dose–response curves were performed as 16-point 2-fold dilutions in duplicate in at least two independent experiments.

CCK1R [2] = biological target: T2, CCK1R (Homo sapiens, UniProt P32238); experiment: IP-One accumulation TR-FRET assay, PAM format, HEK-293 CCK1R cells; set-up: expressed in transfected cells; host or cells: HEK-293; conditions: for Emax: HEK293, relative to CCK control; for Emax / CCK1R PAM (IP-One) Score (activity score = normalized Emax × pEC50) / EC50: HEK-293 CCK1R cells; for Emax / CCK1R PAM (IP-One) Score (activity score = normalized Emax × pEC50): PAM format; for Emax / EC50: average ± SD; for EC50: PAM format with EC20 CCK; for CCK1R IP-One activity (in words): PAM and agonist formats
T2 sequence (P32238 1-428): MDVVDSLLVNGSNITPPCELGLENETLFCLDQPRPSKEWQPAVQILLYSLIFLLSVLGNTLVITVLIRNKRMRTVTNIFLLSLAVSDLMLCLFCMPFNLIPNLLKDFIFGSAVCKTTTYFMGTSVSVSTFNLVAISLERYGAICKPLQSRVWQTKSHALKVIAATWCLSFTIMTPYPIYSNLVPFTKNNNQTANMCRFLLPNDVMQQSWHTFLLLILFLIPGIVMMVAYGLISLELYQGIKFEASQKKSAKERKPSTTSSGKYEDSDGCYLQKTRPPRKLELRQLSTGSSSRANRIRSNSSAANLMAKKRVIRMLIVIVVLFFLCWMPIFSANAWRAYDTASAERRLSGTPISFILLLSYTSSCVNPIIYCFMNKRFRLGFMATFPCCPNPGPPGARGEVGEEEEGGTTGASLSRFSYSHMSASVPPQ
Protocol: (§1) For structure–activity relationship studies, we performed myo-inositol-1-phosphate (IP-One) accumulation assays with TR-FRET technology applied to the HEK-293 cell line overexpressing CCK1Rs, as we had described in our high throughput screening effort. In brief, thawed cryopreserved cell stocks were re-suspended in IP-One assay media consisting of phenol-red free DMEM (Corning, Corning, NY, USA, #17-205-CV) with 10% FBS, 1% penicillin (10,000 units)/streptomycin (10 mg) (Pen/Strep, Thermo Fisher Scientific, Waltham, MA, USA, Gibco #15140122), and 1% L-glutamine (200 mM) (Gibco #25030081) and diluted to required cell densities. Then, the cell suspension was dispensed into a 1536-well tissue culture microplate (Corning, #3727), and the plate was incubated overnight at 37 °C and 5% CO^2. After 16–20 h, DMSO or compounds were added with an Echo liquid handler (Labcyte, San Jose, CA, USA), resulting in a top final compound concentration of 50 µM diluted 2-fold for 16-point dose–responses. For the positive allosteric modulator (PAM) format, orthosteric stimulator (CCK) dilutions for control wells were prepared in assay media containing 150 mM lithium chloride (LiCl, 50 mM final, Sigma-Aldrich, St Louis, MO, USA, #L7026). After a 30 min incubation of test compounds at 37 °C and 5% CO2, orthosteric stimulator dilutions (for PAM format) or equivalent dilutions of DMSO (for agonist format) were added to designated wells using BioRaptr (Beckman Coulter, Brea, CA, USA). In addition, CCK control ligand dilutions were included on each test plate. After that, the plate was incubated for 1 h at 37 °C and 5% CO^2 and equilibrated to room temperature. Detection reagents from the IP-One Gq detection kit from Cisbio (Cisbio US Inc., Bedford, MA, USA, #62IPAPEJ) were added, and after 1 h at RT, IP-One content was measured with a PHERAstar FSX microplate reader (BMG Labtech, Ortenberg, Germany). Control ligand dose–responses were analyzed using GraphPad Prism 9.3.1 (San Diego, CA, USA) to validate adequate control and test well concentrations for positive allosteric modulation (PAM) and agonist formats. Dose–response curves were performed as 16-point 2-fold dilutions in duplicates in at least three independent experiments. Large data sets were uploaded and analyzed with CBIS (Chemical and Biology Information System software, ChemInnovation Software, Inc., San Diego, CA, USA). Further data analysis for detailed SAR studies was conducted using the D360 software (Certara).
(§2) The potency and efficacy data for these compounds were used to calculate their activity scores using the following formula: Activity Score = normalized Emax × pEC50. Normalized Emax represents the efficacy of the compound as a fractional response relative to that of the CCK control ligand. pEC50 represents the positive logarithmic value of compound EC50 concentrations in (M).

CCK1R [3] = biological target: T2, CCK1R; experiment: IP-One accumulation TR-FRET assay, agonist format, HEK-293 CCK1R cells; set-up: expressed in transfected cells; host or cells: HEK-293; conditions: for Emax: HEK293, relative to CCK control, average ± SD, read-out: CCK1R Ago (IP-One) Emax
Protocol: as §1, §2

T1 sequence (P30518 whole entry): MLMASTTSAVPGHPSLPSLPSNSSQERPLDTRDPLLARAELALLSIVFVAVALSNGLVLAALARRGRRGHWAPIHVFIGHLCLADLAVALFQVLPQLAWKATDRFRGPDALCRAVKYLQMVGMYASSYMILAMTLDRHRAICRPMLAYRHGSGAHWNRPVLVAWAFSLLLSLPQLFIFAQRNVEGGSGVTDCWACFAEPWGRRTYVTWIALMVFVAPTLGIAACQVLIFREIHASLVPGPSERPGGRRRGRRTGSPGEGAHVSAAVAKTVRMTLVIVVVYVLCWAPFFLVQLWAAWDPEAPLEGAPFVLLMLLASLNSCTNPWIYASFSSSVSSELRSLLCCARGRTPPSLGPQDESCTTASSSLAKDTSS

CN(C)CCCNc1nnnc2c1sc1nc(N3CCOCC3)c3c(c12)CCCC3 [CMP-17] was tested, and the “AVP2R PAM (cAMP) Score (activity score = normalized Emax × pEC50)” value [1] was 1.2, the EC50 [1] was 22.4 ± 9.2 µM and the Emax [1] was 26 ± 1%. The Emax (CCK1R [2]) was 50 ± 32%, the “CCK1R PAM (IP-One) Score (activity score = normalized Emax × pEC50)” value (CCK1R [2]) was 2.0 and 1.99 and the EC50 (CCK1R [2]) was 23 ± 17.9 µM.
In the case of CCCCNc1ncnc2c1sc1nc(N3CCOCC3)c3c(c12)CCCC3 [CMP-48], the “AVP2R PAM (cAMP) Score (activity score = normalized Emax × pEC50)” value [1] is reported as 0, the Emax [1] is reported as 0% and the Emax (CCK1R [2]) is reported as 0%. The “CCK1R PAM (IP-One) Score (activity score = normalized Emax × pEC50)” value (CCK1R [2]) was 0, the “CCK1R IP-One activity (in words)” value (CCK1R [2]) was “None of these analogs showed any CCK1R activity” and the “CCK1R Ago (IP-One) Score (activity score = normalized Emax × pEC50)” value (CCK1R [3]) was 0. For the same molecule, the Emax (CCK1R [3]) was 0%.
With CC(C)Cc1nc2oc3c(N4CCNCC4)ncnc3c2c2c1CCCC2 [CMP-15] the “AVP2R PAM (cAMP) Score (activity score = normalized Emax × pEC50)” value [1] was 2.97, the EC50 [1] was 7.3 ± 3.3 µM and the Emax [1] was 58 ± 15%. For the same molecule, the Emax (CCK1R [2]) was 43 ± 3%, the “CCK1R PAM (IP-One) Score (activity score = normalized Emax × pEC50)” value (CCK1R [2]) was 2.04 and the EC50 (CCK1R [2]) was 17.8 ± 6.2 µM. For the same molecule, the “CCK1R Ago (IP-One) Score (activity score = normalized Emax × pEC50)” value (CCK1R [3]) was 0.
With CC(Sc1ncnc2c1sc1nc(N3CCOCC3)c3c(c12)CCCC3)C(=O)O (stereo not drawn) [CMP-59] the “AVP2R PAM (cAMP) Score (activity score = normalized Emax × pEC50)” value [1] was 0.93, the EC50 [1] was 22.3 ± 7.2 µM and the Emax [1] was 20%. The “CCK1R IP-One activity (in words)” value (CCK1R [2]) was “displayed no effects”, the “CCK1R Ago (IP-One) Score (activity score = normalized Emax × pEC50)” value (CCK1R [3]) was 0 and the Emax (CCK1R [3]) was 0%.
In the case of CCCc1nc2oc3c(N4CCNCC4)ncnc3c2c2c1CCCC2 [CMP-12], the “AVP2R PAM (cAMP) Score (activity score = normalized Emax × pEC50)” value [1] is reported as 3.3 and 3.28, the EC50 [1] is reported as 11.4 ± 3.6 µM and the Emax [1] is reported as 66 ± 3%. The Emax (CCK1R [2]) was 46 ± 7%, the “CCK1R PAM (IP-One) Score (activity score = normalized Emax × pEC50)” value (CCK1R [2]) was 2.2 and 2.23 and the EC50 (CCK1R [2]) was 14.1 ± 4.3 µM.
With CCCCNc1ncnc2c1sc1nc(CCC)c3c(c12)CCCC3 [CMP-57] the “AVP2R PAM (cAMP) Score (activity score = normalized Emax × pEC50)” value [1] was 0, the Emax [1] was 0% and the “CCK1R Ago (IP-One) Score (activity score = normalized Emax × pEC50)” value (CCK1R [3]) was 0. The Emax (CCK1R [3]) was 0%.
In the case of COc1ccc(CCNc2ncnc3c2oc2nc(C(C)C)c4c(c23)CCC4)cc1OC [CMP-62], the “AVP2R PAM (cAMP) Score (activity score = normalized Emax × pEC50)” value [1] is reported as 0, the Emax [1] is reported as 0% and the “CCK1R Ago (IP-One) Score (activity score = normalized Emax × pEC50)” value (CCK1R [3]) is reported as 0. The Emax (CCK1R [3]) was 0%.
For CCN(CC)CCCNc1ncnc2c1oc1nc(CC(C)C)c3c(c12)CCC3 [CMP-10], the “AVP2R PAM (cAMP) Score (activity score = normalized Emax × pEC50)” value [1] was 2.2 and 2.15, the EC50 [1] was 21.7 ± 11.3 µM and the Emax [1] was 46 ± 9%. The Emax (CCK1R [2]) was 51 ± 16%, the “CCK1R PAM (IP-One) Score (activity score = normalized Emax × pEC50)” value (CCK1R [2]) was 2.3 and 2.28 and the EC50 (CCK1R [2]) was 22.5 ± 9 µM.
For CCCc1nc2sc3c(NCCCO)ncnc3c2c2c1CCC2 [CMP-56], the “AVP2R PAM (cAMP) Score (activity score = normalized Emax × pEC50)” value [1] was 0, the Emax [1] was 0% and the “CCK1R Ago (IP-One) Score (activity score = normalized Emax × pEC50)” value (CCK1R [3]) was 0. The Emax (CCK1R [3]) was 0%.
Sc1nnnc2c1sc1nc(N3CCOCC3)c3c(c12)CCCC3 [CMP-52] was tested, and the Emax (CCK1R [2]) was 0%, the “CCK1R PAM (IP-One) Score (activity score = normalized Emax × pEC50)” value (CCK1R [2]) was 0 and the “CCK1R IP-One activity (in words)” value (CCK1R [2]) was “displayed no effects”. The “CCK1R Ago (IP-One) Score (activity score = normalized Emax × pEC50)” value (CCK1R [3]) was 0 and the Emax (CCK1R [3]) was 0%.
In the case of CN1CCN(c2ncnc3c2sc2nc(N4CCOCC4)c4c(c23)CCCC4)CC1 [CMP-19], the Emax (CCK1R [2]) is reported as 51 ± 43%, the “CCK1R PAM (IP-One) Score (activity score = normalized Emax × pEC50)” value (CCK1R [2]) is reported as 1.9 and 1.94 and the EC50 (CCK1R [2]) is reported as 18.2 ± 8.6 µM. For the same molecule, the “CCK1R Ago (IP-One) Score (activity score = normalized Emax × pEC50)” value (CCK1R [3]) was 0 and the Emax (CCK1R [3]) was 0%.
